# Results from US6388109B1, “14,15-cyclopropano steroids of the 19-norandrostane series, method for the production thereof and pharmaceutical preparations containing said compounds” (Jenapharm GmbH & Co. KG, priority 1998, dated 2002).
# Experiments:
# [1] = tested on: pregnancy maintenance (gestagenic action); test: pregnancy maintenance test in mice; assay type: in vivo
# Text: Another example is the compound of general formula I—in which R1 and R2 in each case represent a hydrogen atom, R3 represents an α-position hydrogen atom, R4 stands for a β-position hydroxy group, and the cyclopropane ring is in α-position—17β-hydroxy-14,α,15α-methylenestr-4-en-3-one (J 1129), which in the same test has an approximately 50-fold stronger gestagenic action in comparison to the reference substance norethisterone acetate.
# [2] = target: T1, progesterone receptor of the rabbit uterus (Oryctolagus cuniculus, UniProt P06186); test: binding to the progesterone receptor of the rabbit uterus (reference substance: progesterone)
# T1 construct: progesterone receptor of the rabbit uterus; from tissue; host or cells: rabbit uterus
# T1 sequence (P06186 1-930): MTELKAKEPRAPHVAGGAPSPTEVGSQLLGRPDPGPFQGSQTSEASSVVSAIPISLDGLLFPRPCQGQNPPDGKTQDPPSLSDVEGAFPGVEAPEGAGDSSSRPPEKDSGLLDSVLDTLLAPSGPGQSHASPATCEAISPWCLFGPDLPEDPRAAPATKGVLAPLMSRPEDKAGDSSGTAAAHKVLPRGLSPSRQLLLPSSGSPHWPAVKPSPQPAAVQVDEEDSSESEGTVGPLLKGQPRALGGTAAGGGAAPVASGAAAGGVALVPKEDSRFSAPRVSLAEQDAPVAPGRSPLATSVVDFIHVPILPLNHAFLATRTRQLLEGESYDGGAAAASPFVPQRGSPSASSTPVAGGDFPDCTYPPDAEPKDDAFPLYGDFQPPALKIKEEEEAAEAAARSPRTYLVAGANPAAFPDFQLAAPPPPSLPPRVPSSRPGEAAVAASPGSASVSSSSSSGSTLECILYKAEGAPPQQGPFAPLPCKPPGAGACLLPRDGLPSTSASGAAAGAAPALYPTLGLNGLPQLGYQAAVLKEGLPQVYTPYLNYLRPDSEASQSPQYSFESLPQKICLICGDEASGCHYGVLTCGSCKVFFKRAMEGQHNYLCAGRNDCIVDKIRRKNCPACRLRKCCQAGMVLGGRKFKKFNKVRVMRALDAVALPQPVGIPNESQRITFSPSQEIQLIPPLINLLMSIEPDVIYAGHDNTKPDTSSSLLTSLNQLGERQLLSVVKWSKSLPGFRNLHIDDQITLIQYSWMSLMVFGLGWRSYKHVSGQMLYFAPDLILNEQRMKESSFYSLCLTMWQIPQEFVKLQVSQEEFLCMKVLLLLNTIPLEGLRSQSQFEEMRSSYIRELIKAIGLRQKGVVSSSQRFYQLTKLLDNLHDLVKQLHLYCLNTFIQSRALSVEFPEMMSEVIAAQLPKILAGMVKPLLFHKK
# Text: Another example is the compound of general formula I—in which R1 and R2 in each case represent a hydrogen atom, R3 means an α-position chloromethyl group, R4 stands for a β-position hydroxy group, and the cyclopropane ring is in β-position—17α-chloromethyl-17β-hydroxy-14β,15β-methylenestr-4-en-3-one (Code J 1364), which binds with 710±80% to the progesterone receptor of the rabbit uterus (reference substance: progesterone).
# [3] = target: T2, androgen receptor of the rat prostate (Rattus norvegicus, UniProt P15207); test: binding to the androgen receptor of the rat prostate (reference substance: R 1881)
# T2 construct: androgen receptor of the rat prostate; from tissue; host or cells: rat prostate
# T2 sequence (P15207 1-902): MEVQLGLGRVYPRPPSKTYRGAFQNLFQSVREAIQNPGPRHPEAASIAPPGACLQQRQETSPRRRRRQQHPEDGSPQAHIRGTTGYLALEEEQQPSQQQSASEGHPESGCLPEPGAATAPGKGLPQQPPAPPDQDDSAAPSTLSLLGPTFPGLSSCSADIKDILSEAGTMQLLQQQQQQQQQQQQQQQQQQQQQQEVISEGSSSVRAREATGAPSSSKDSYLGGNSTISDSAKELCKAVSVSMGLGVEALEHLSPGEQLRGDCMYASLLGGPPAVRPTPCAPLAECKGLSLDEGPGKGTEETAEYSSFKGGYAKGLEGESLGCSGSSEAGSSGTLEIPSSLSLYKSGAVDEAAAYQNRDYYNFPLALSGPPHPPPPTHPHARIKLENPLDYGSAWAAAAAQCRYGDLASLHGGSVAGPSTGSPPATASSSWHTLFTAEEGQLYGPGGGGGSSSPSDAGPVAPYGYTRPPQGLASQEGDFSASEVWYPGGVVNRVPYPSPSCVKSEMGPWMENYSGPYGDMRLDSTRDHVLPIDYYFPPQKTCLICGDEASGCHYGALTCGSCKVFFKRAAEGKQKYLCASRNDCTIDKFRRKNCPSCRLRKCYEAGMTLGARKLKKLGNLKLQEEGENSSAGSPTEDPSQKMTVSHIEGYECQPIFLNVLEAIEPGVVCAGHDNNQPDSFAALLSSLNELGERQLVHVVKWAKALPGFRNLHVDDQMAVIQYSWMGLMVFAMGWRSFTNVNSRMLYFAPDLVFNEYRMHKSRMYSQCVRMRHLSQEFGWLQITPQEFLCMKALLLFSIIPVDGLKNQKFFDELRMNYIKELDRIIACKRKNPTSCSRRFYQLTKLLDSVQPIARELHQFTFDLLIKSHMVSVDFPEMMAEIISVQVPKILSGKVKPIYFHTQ
SMILES,"gestagenic action in comparison to the reference substance norethisterone acetate ([1]; pregnancy maintenance test, stronger than norethisterone acetate)",binding to the progesterone receptor [2],"binding to the androgen receptor ([3]; reference substance: 17β-hydroxy-17α-methyl-estra-4,9,11-trien-3-one (R 1881))",effectiveness in the pregnancy maintenance test compared with norethisterone acetate ([1]; reference gestagen norethisterone acetate),affinity to the androgen receptor (in words) ([3]; reference substance: R 1881)
"C[C@]12CC[C@H]3[C@@H](CCC4=CC(=O)CC[C@@H]43)[C@@]13C[C@H]3C[C@@H]2O [J 1129, 17β-Hydroxy-14α,15α-methylenestr-4-en-3-one]",approximately 50 fold,42±5%,59±7%,,
"COC[C@]1(O)C[C@H]2C[C@]23[C@@H]2CCC4=CC(=O)CC[C@@H]4[C@H]2CC[C@]13C [J 1222, 17β-Hydroxy-17α-(methoxymethyl)-14β,15β-methylenestr-4-en-3-one]",,52±4%,,just as effective,virtually no affinity
"CC12CCC3C4CCC(=O)C=C4CCC3C13CC3CC2(O)CCl (stereo not drawn) [J 1364, 17α-Chloromethyl-17β-hydroxy-14β,15β-methylenestr-4-en-3-one]",,710±80%,,,
